In patent publication US6685617B1, “Inhibitors of α4β1 mediated cell adhesion” (Pharmacia & Upjohn Company, priority 1998, dated 2004):

Legend:
[1] = molecular target: T1, α4β1 integrin (Jurkat T-cell adhesion to IL-1 stimulated endothelial cell monolayers) (Homo sapiens, UniProt P05556+P13612); experiment: Jurkat-endothelial cell adhesion assay (Jurkat EC); assay type: cell-based; conditions: Jurkat cells on IL-1 stimulated human umbilical vein endothelial cells; read-out: JK/EC (Jurkat EC Assay IC50 value range)
T1 construct: a T-cell line, Jurkat, known to express the α4β1 integrin; host or cells: Jurkat T-cell line
Procedure, shortened: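 Adhesion was expressed as percent of compound-free fluorescence after 20 min at 37° C (following 5 min settling on ice) of BCECF-loaded Jurkat T cells on washed HUVEC monolayers. The endothelium, passage 6 or lower, had received 0.1 ng/ml recombinant IL-1 for 4 hr at 37° C; compound was premixed with the T cells, typically at 100, 20, 5 and 1.25 μM.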

[2] = molecular target: T2, α4β1 integrin (Jurkat cell adhesion to immobilized CS-1 derived peptide CLHPGEILDVPST) (Homo sapiens, UniProt P05556+P13612); experiment: Jurkat-CS-1 assay; assay type: cell-based; conditions: Jurkat cells on CS-1 peptide coated plates; read-out: JK/CS-1 (Jurkat CS-1 Assay IC50 value range)
T2 construct: 100 μl of Jurkat cells (2.5×10^6 cells/ml) in DMEM plus BSA; host or cells: Jurkat T-cell line
Procedure, shortened: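 CS-1 peptide was SPDP-crosslinked onto HSA-coated plates and blocked with BSA. Jurkat cells (2.5×10^6 cells/ml) in DMEM/BSA were mixed with compound, generally at 100, 20, 5 and 1.25 μM, and allowed to adhere for 1 hr at 37° C. Bound cells were fixed, stained with toluidine blue and quantified by OD590.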

T2 sequence (P13612 34-1032): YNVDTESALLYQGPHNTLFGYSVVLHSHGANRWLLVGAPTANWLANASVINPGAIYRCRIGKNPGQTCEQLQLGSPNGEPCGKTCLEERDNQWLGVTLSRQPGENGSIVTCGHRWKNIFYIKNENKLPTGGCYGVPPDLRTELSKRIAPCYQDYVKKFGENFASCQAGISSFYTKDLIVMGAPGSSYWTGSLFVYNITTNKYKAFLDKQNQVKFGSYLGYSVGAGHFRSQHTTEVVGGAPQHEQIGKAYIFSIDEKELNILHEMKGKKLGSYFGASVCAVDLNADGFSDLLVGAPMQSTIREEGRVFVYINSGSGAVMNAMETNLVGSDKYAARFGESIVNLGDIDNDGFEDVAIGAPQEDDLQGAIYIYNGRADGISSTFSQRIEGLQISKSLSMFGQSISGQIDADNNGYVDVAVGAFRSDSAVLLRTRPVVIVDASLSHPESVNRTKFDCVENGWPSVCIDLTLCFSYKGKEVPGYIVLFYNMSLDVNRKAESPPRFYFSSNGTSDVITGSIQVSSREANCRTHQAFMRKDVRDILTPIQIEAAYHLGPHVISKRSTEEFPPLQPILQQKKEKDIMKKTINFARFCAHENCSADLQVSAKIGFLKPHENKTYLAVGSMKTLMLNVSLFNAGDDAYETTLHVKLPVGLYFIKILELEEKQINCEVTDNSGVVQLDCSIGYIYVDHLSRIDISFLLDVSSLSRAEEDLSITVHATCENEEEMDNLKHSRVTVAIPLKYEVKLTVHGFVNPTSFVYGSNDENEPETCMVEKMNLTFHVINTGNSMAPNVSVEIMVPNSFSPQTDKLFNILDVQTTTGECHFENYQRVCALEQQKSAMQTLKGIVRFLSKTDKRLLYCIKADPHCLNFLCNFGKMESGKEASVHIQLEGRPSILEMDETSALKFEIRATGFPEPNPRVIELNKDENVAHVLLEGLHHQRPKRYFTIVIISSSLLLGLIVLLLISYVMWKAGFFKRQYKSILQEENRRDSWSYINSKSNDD
T2 sequence (P05556 21-798): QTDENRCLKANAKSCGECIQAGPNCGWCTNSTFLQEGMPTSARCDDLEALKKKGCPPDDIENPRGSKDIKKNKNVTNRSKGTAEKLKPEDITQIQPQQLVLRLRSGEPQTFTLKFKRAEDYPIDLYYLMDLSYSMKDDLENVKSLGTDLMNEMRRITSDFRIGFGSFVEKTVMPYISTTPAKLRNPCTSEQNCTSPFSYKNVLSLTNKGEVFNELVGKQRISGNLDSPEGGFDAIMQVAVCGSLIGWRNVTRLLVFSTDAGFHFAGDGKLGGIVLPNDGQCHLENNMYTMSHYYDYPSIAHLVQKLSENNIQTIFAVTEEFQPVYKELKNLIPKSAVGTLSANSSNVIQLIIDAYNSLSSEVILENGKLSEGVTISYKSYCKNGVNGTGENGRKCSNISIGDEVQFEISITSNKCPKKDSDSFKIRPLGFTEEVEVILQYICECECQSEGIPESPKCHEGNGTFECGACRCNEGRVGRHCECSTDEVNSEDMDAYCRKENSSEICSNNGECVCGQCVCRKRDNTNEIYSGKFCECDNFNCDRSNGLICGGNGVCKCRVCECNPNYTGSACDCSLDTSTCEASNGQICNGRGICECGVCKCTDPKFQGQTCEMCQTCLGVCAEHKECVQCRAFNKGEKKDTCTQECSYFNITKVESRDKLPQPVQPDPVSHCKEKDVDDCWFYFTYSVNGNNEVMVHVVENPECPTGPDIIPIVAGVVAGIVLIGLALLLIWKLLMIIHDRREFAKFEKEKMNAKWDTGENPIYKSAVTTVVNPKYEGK
T1 sequence (P13612 34-1032): as the sequence (P13612 34-1032) above
T1 sequence (P05556 21-798): as the sequence (P05556 21-798) above

IC50 [1] | IC50 [2] | Structure (SMILES)
≥ 1000 nM | 50 to 750 nM | CCOC(=O)N1CSC[C@@H]1C(=O)N[C@@H](Cc1ccc(OCc2c(Cl)cccc2Cl)cc1)C(=O)OC (relative stereo) [Example 34, [S-(R*,R*)]-4-[[[1-[4-[(2,6-Dichlorophenyl)methoxy]phenylmethyl]-2-methoxy-2-oxoethyl]amino]carbonyl]-3-thiazolidinecarboxylic Acid 3-Ethyl Ester]
250 to 1000 nM | 50 to 750 nM | CCOC(=O)N1CSC[C@@H]1C(=O)N[C@@H](Cc1ccc(OCc2c(Cl)cccc2Cl)cc1)C(=O)O (relative stereo) [Example 35, [S-(R*,R*)]-4-[[[1-Carboxy-2-[4-[(2,6-dichlorophenyl)methoxy]phenyl]ethyl]amino]carbonyl]-3-thiazolidinecarboxylic Acid 3-Ethyl Ester]
≤ 250 nM | ≤ 50 nM | O=C(O)[C@H](Cc1ccc(OCc2c(Cl)cccc2Cl)cc1)NC(=O)[C@H]1CSCN1C(=O)OCCN1CCOCC1 (relative stereo) [Example 37]
≥ 1000 nM | ≥ 750 nM | CC(C)(C)OC(=O)N1CSC[C@H]1C(=O)N[C@@H](Cc1ccc(OCc2c(Cl)cccc2Cl)cc1)C(=O)O (relative stereo) [Example 41, [R-(R*,S*)]-4-[[[1-Carboxy-2-[4-[(2,6-dichlorophenyl)methoxy]phenyl]ethyl]amino]carbonyl]-3-thiazolidinecarboxylic Acid 3-(1,1-Dimethylethyl)ester]
≥ 1000 nM | 50 to 750 nM | COC(=O)CCCC(=O)N1CSC[C@@H]1C(=O)N[C@@H](Cc1ccc(NC(=O)c2c(Cl)cccc2Cl)cc1)C(=O)OC (relative stereo) [Example 59, [S-(R*,R*)]-4-[[[1-[4-[(2,6-dichlorobenzoyl)amino]phenyl]methyl]-2-methoxy-2-oxoethyl]amino]carbonyl]-δ-oxo-3-thiazolidinepentanoic Acid 3-Methyl Ester]
≤ 250 nM | ≤ 50 nM | O=C(O)CCCC(=O)N1CSC[C@@H]1C(=O)N[C@@H](Cc1ccc(NC(=O)c2c(Cl)cccc2Cl)cc1)C(=O)O (relative stereo) [Example 60, [S-(R*,R*)]-4-[[[1-Carboxy-2-[4-[(2,6-dichlorobenzoyl)amino]phenyl]ethyl]amino]carbonyl]-δ-oxo-3-thiazolidinepentanoic Acid]
≤ 250 nM | ≤ 50 nM | CC1(C)SCN(C(=O)CCC(=O)O)[C@H]1C(=O)N[C@@H](Cc1ccc(NC(=O)c2c(Cl)cccc2Cl)cc1)C(=O)O (relative stereo) [Example 63, [S-(R*,R*)]-4-[[[1-Carboxy-2-[4-[(2,6-dichlorobenzoyl)amino]phenyl]ethyl]amino]carbonyl]-5,5-dimethyl-δ-oxo-3-thiazolidinebutanoic Acid]
≤ 250 nM | ≤ 50 nM | O=C(O)CCC(=O)N1CSC[C@@H]1C(=O)N[C@@H](Cc1ccc(OCc2c(Cl)cccc2Cl)cc1)C(=O)O (relative stereo) [Example 64, [S-(R*,R*)]-4-[[[1-Carboxy-2-[4-[(2,6-dichlorophenyl)methoxy]phenyl]ethyl]amino]carbonyl]-γ-oxo-3-thiazolidinebutanoic Acid]
≥ 1000 nM | 50 to 750 nM | O=C(O)CCC(=O)N1CSC[C@H]1C(=O)N[C@@H](Cc1ccc(NC(=O)c2c(Cl)cccc2Cl)cc1)C(=O)O (relative stereo) [Example 67, [R-(R*,S*)]-4-[[[1-Carboxy-2-[4-[(2,6-dichlorobenzoyl)amino]phenyl]ethyl]amino]carbonyl]-γ-oxo-3-thiazolidinebutanoic Acid]
≥ 1000 nM | 50 to 750 nM | O=C(O)CCCC(=O)N1CSC[C@H]1C(=O)N[C@@H](Cc1ccc(NC(=O)c2c(Cl)cccc2Cl)cc1)C(=O)O (relative stereo) [Example 68, [R-(R*,S*)]-4-[[[1-Carboxy-2-[4-[(2,6-dichlorobenzoyl)amino]phenyl]ethyl]amino]carbonyl]-δ-oxo-3-thiazolidinepentanoic Acid]
≥ 1000 nM | ≥ 750 nM | COC(=O)[C@H](Cc1ccc(NC(=O)c2c(Cl)cccc2Cl)cc1)NC(=O)[C@@H]1CSC(C)(C)N1C(=O)OC(C)(C)C (relative stereo) [Example 72, [R-(R*,S*)]-4-[[[1-[[4-[(2,6-Dichlorobenzoyl)amino]phenyl]methyl]-2-methoxy-2-oxo-ethyl]amino]carbonyl]-2,2-dimethyl-3-thiazolidinecarboxylic Acid 3-(1,1-Dimethylethyl)ester]
≥ 1000 nM | 50 to 750 nM | CC(C)(C)OC(=O)N1[C@H](C(=O)N[C@@H](Cc2ccc(NC(=O)c3c(Cl)cccc3Cl)cc2)C(=O)O)CSC1(C)C (relative stereo) [Example 73, [R-(R*,S*)]-4-[[[Carboxy-2-[4-[(2,6-dichlorobenzoyl)amino]phenyl]ethyl]amino]carbonyl]-2,2-dimethyl-3-thiazolidinecarboxylic Acid 3-(1,1-Dimethylethyl)ester]
≥ 1000 nM | ≥ 750 nM | COC(=O)[C@H](Cc1ccc(NC(=O)c2c(Cl)cccc2Cl)cc1)NC(=O)[C@H]1CSC(C)(C)N1C(=O)OC(C)(C)C (relative stereo) [Example 75, [S-(R*,R*)]-4-[[[1-[[4-[(2,6-Dichlorobenzoyl)amino]phenyl]methyl]-2-methoxy-2-oxo-ethyl]amino]carbonyl]-2,2-dimethyl-3-thiazolidinecarboxylic Acid 3-(1,1-Dimethylethyl)ester]
≤ 250 nM | 50 to 750 nM | CC(C)(C)OC(=O)N1[C@@H](C(=O)N[C@@H](Cc2ccc(NC(=O)c3c(Cl)cccc3Cl)cc2)C(=O)O)CSC1(C)C (relative stereo) [Example 76, [S-(R*,R*)]-4-[[[1-Carboxy-2-[4-[(2,6-dichlorobenzoyl)amino]phenyl]ethyl]amino]carbonyl]-2,2-dimethyl-3-thiazolidinecarboxylic Acid 3-(1,1-Dimethylethyl)ester]
≥ 1000 nM | ≥ 750 nM | CCOC(=O)N1[C@@H](C(=O)N[C@@H](Cc2ccc(NC(=O)c3c(Cl)cccc3Cl)cc2)C(=O)OC)CSC12CCCC2 (relative stereo) [Example 77, [S-(R*,R*)]-3-[[[1-[[4-[(2,6-Dichlorobenzoyl)amino]phenyl]methyl]-2-methoxy-2-oxoethyl]amino]carbonyl]-1-thia-4-azaspiro[4.4]nonane-4-carboxylic Acid 4-Ethyl Ester]
≥ 1000 nM | 50 to 750 nM | CCOC(=O)N1[C@@H](C(=O)N[C@@H](Cc2ccc(NC(=O)c3c(Cl)cccc3Cl)cc2)C(=O)O)CSC12CCCC2 (relative stereo) [Example 78, [S-(R*,R*)]-3-[[[1-Carboxy-2-[4-[(2,6-dichlorobenzoyl)amino]phenyl]ethyl]amino]carbonyl]-1-thia-4-azaspiro[4.4]nonane-4-carboxylic Acid 4-Ethyl Ester]
≥ 1000 nM | ≥ 750 nM | CCOC(=O)N1[C@@H](C(=O)N[C@@H](Cc2ccc(NC(=O)c3c(Cl)cccc3Cl)cc2)C(=O)OC)CSC12CCCCC2 (relative stereo) [Example 79, [S-(R*,R*)]-3-[[[1-[[4-[(2,6-Dichlorobenzoyl)amino]phenyl]methyl]-2-methoxy-2-oxoethyl]amino]carbonyl]-1-thia-4-azaspiro[4.5]decanecarboxylic Acid 4-Ethyl Ester]
